In US5756423A, “Method of controlling plants by inhibition of farnesyl pyrophosphate synthase” (Zeneca Limited, priority 1997, dated 1998):
Where two headings read alike, the source gives them in different places. Blank lines part the entries; values can stand above or below the compound they belong to.

Key:
[1] = system: farnesyl pyrophosphate synthase in daffodil chromoplasts; assay: inhibition of farnesyl pyrophosphate synthase in daffodil chromoplasts (14C-isopentenyl pyrophosphate incorporation); format: biochemical, Narcissus pseudonarcissus; settings: unit inferred, IC50 values in nM, read-out: IC50
Description: The IC50 value may be determined as follows. Daffodil chromoplasts are diluted to a volume of 500 microliters in a buffer containing 0.5M sucrose, 3 mM MgCl2, 1 mM ethylenediaminetetraacetic acid, 20 mM N-tris[hydroxymethyl]methyl-2-aminoethanesulfonic acid, […] N-[2-hydroxyethyl]-piperazine-N'-[2-ethanesulfonic acid], 5 mM L-cysteine, 10 mM sodium fluoride, and 0.1% bovine serum albumin at pH 7.7. The inhibitor to be tested may be dissolved in water other suitable solvent and then added to the reaction mixture. The assay is started by the addition of ^14 C-labeled isopentenyl pyrophosphate (52 Ci/mol) to give a final concentration in the assay of about 3 micromolar. The mixture is incubated at 30° C. with gentle agitation for a period of about 30 min. The reaction may be stopped by the addition of 0.5 mL of saturated NaCl and 2 mL of n-butanol saturated with water. After thorough mixing, the turbid suspensions are centrifuged briefly to separate the layers, and 1 mL of the bright yellow upper butanol layer is added to 10 mL of a suitable scintillation fluid which gives a single phase. The butanol soluble radioactivity is then measured in a scintillation counter.
In addition, the problem of variable quenching differences among different experiments can be essentially eliminated by determining the incorporation of radioactivity relative to controls. Each set of experiments requires two control tubes identical to the test samples except that they contain no inhibitor. One of these is quenched immediately (TO sample) and one is quenched at the end of the normal incubation period (T100 sample).
For each concentration of inhibitor examined the % residual activity is determined from the formula [formula]
Tightly closed daffodil flowers (Narcissus pseudonarcissus) were allowed to open at room temperature. […] Coronae were placed in twice their weight of isolation buffer consisting of 67 mM potassium phosphate, 0.74M sucrose, 5 mM MgCl2, and 0.2% polyvinyl-pyrrolidone at pH 7.6 and were disrupted by 30 seconds of homogenization at high speed in a Waring-type blender. The mixture was filtered through several layers of cheesecloth and 2 layers of 100 micron nylon mesh, and the resulting filtrate was centrifuged at 1000×g for 10 minutes. The pellet was discarded and supernatant was centrifuged at 22,000×g for 20 minutes. […] This solution was centrifuged at 22,000×g for 20 minutes to give orange pellets which were suspended in a buffer of 100 mM tris(hydroxymethyl)aminomethane at pH 7.6 containing 5mM MgCl2 and 2 mM dithiothreitol (1 ml per 10 coronae). This solution was frozen in liquid nitrogen and then stored at -80° C.
Thawed daffodil chromoplasts (100-150 microliters) were diluted to a final volume of 500 microliters in a buffer containing 0.5M sucrose, 3 mM MgCl2, 1 mM ethylenediaminetetraacetic acid, 10 mM N-[2-hydroxyethyl]piperazine-N^1 -[2-ethanesulfonic acid], 5 mM L-cysteine, 10 mM sodium fluoride, and 0.1% bovine serum albumin at pH 7.7. The inhibitor to be tested was dissolved in water or other suitable solvent and was added to the reaction mixture. The assay was started by the addition of ^14 C-labeled isopentenyl pyrophosphate (52 Ci/mol) to give a final concentration in the assay of about 3 micromolar. The mixture was incubated at 30° C. with gentle agitation for a period of about 30 minutes. The reaction was stopped by the addition of 0.5 mL of saturated NaCl and 2 mL of n-butanol saturated with water. After thorough mixing, the turbid suspensions were centrifuged briefly to separate the layers, and 1 mL of the bright yellow upper butanol layer was added to 10 mL of a suitable scintillation fluid which gave a single phase. The butanol soluble radioactivity was then measured in a scintillation counter. Each set of experiments required two control tubes identical to the test samples except that they contain no inhibitor.

[2] = system: wild oat (Avena fatua) (AVEFA); assay: post-emergent herbicidal test, wild oat; format: in vivo; settings: Avena fatua, post-emergence, read-out: AVEFA percent control
Source text: (§1) Seeds of several different weed species were planted in sandy loam soil containing only trace organic matter. Propagules were sown in individuals rows using one species per row across the width of an aluminum flat (19.5×9.5×6 cm). The grass weeds planted were green foxtail (Setaria viridis) ("SETVI"), wild oat (Avena fatua) ("AVEFA"), barnyard grass (Enchinochloa crusgalli) ("ECHCG"). Broadleaf weeds utilized were wild mustard (Brassica kaber), also known as Sinapis arvensis, ("SINAR"), velvetleaf (Abutilon theophrasti) ("ABUTH") and morningglory (Ipomoea spp.) ("IPOSS"). Additionally, yellow nutsedge (Cyperus esculentus) ("CYPES"), nutlets were sown. Seeding depths ranged from 1.0 to 1.5 cm and plant densities ranged from 3 to 25 plants per row depending on individual plant species.
(§2) The flats were placed into a greenhouse and watered overhead by sprinkling. The greenhouse environmental systems provided the plants with natural and artificial (via metal halide lamps) lighting to attain 14 hours of light per day. Day and night temperatures were maintained at 29° and 21° C. respectively. The plants were grown for 10 to 12 days (or to the appropriate growth stage) prior to compound application. Grasses were sprayed at a 3 to 4 leaf stage and broadleaves at a 1 to 2 leaf stage. Yellow nutsedge was 5 to 7 cm tall at application.
(§3) Solutions of the test compounds were prepared by weighing out 18.8 and 74.7 mg for 1 and 4 kg/ha applications respectively, of the test compound into a 60 ml wide-mouth bottle, then dissolving the compound in 14.0 ml of deionized water containing 0.5% v/v Tween 20' (polyoxyethylene sorbitan monolaurate emulsifier) as a surfactant. Additional solvents, not exceeding 2 ml (15% of spray volume), were used if needed to dissolve the compound.
(§4) The plants were sprayed inside an enclosed linear spray table with the nozzle set at 30.5 cm (12 inches) above the foliage.
(§5) Treated plants were then returned to a greenhouse and watered daily without wetting the foliage.
(§6) The degree of weed control was evaluated 17-21 days after application and recorded as percentage of control as compared to the growth of the same species in an untreated control flat of the same. Percent control is the total injury to the plants due to all factors including: inhibited emergence, stunting, malformation, chlorosis and other types of plant injury. The control ratings range from 0 to 100 percent, where 0% represents no effect with growth equal to the untreated control and where 100% represents complete kill.

[3] = system: barnyard grass (Enchinochloa crusgalli) (ECHCG); assay: post-emergent herbicidal test, barnyard grass; format: in vivo; settings: Echinochloa crus-galli, post-emergence, read-out: ECHCG percent control
Source text: as §1, §2, §3, §4, §5, §6

[4] = system: green foxtail (Setaria viridis) (SETVI); assay: post-emergent herbicidal test, green foxtail; format: in vivo; settings: Setaria viridis, post-emergence, read-out: SETVI percent control
Source text: as §1, §2, §3, §4, §5, §6

[5] = system: velvetleaf (Abutilon theophrasti) (ABUTH); assay: post-emergent herbicidal test, velvetleaf; format: in vivo; settings: Abutilon theophrasti, post-emergence, read-out: ABUTH percent control
Source text: as §1, §2, §3, §4, §5, §6

[6] = system: morningglory (Ipomoea spp.) (IPOSS); assay: post-emergent herbicidal test, morningglory; format: in vivo; settings: Ipomoea, post-emergence, read-out: IPOSS percent control
Source text: as §1, §2, §3, §4, §5, §6

[7] = system: wild mustard (Brassica kaber), also known as Sinapis arvensis (SINAR); assay: post-emergent herbicidal test, wild mustard; format: in vivo; settings: Brassica, post-emergence, read-out: SINAR percent control
Source text: as §1, §2, §3, §4, §5, §6

[8] = system: yellow nutsedge (Cyperus esculentus) (CYPES); assay: post-emergent herbicidal test, yellow nutsedge; format: in vivo; settings: Cyperus, post-emergence, read-out: CYPES percent control
Source text: as §1, §2, §3, §4, §5, §6

[9] = post-emergent, 1.0 kg/ha (*), 17-21 days after application
[10] = post-emergent, 4.0 kg/ha, 17-21 days after application

SMILES: CCCN(CCC(C)C)CC(P(=O)(O)O)P(=O)(O)O [Compound 61]
IC50 ([1]; Table I): 1000 nM
IC50 ([1]; Table II): 1000 nM
pest or weed control at 1000 g/ha [2, 9]: 100%
pest or weed control at 1000 g/ha [3, 9]: 100%
pest or weed control at 1000 g/ha [4, 9]: 90%
pest or weed control at 1000 g/ha [5, 9]: 70%
pest or weed control at 1000 g/ha [6, 9]: 30%
pest or weed control at 1000 g/ha [7, 9]: 90%
pest or weed control at 1000 g/ha [8, 9]: 10%

SMILES: CNCC(O)(P(=O)(O)O)P(=O)(O)O [Compound 23]
IC50 ([1]; Table I): 500000 nM
IC50 ([1]; Table II): > 500000 nM
pest or weed control at 4000 g/ha [2]: 0%
pest or weed control at 4000 g/ha [3]: 0%
pest or weed control at 4000 g/ha [4]: 0%
pest or weed control at 4000 g/ha [5]: 0%
pest or weed control at 4000 g/ha [6]: 0%
pest or weed control at 4000 g/ha [7]: 0%
pest or weed control at 4000 g/ha [8]: 0%

SMILES: CCCCN(CCCC)CC(P(=O)(O)O)P(=O)(O)O [Compound 24]
IC50 ([1]; Table I): 190 nM
IC50 ([1]; Table II): 190 nM
pest or weed control at 1000 g/ha [2, 9]: 98%
pest or weed control at 1000 g/ha [3, 9]: 98%
pest or weed control at 1000 g/ha [4, 9]: 85%
pest or weed control at 1000 g/ha [5, 9]: 0%
pest or weed control at 1000 g/ha [6, 9]: 5%
pest or weed control at 1000 g/ha [7, 9]: 30%
pest or weed control at 1000 g/ha [8, 9]: 10%

SMILES: CCCN(CCC)CC(P(=O)(O)O)P(=O)(O)O [Compound 19]
IC50 ([1]; Table I): 32 nM
IC50 ([1]; Table II): 32 nM
pest or weed control at 1000 g/ha [2, 9]: 100%
pest or weed control at 1000 g/ha [3, 9]: 100%
pest or weed control at 1000 g/ha [4, 9]: 98%
pest or weed control at 1000 g/ha [5, 9]: 100%
pest or weed control at 1000 g/ha [6, 9]: 60%
pest or weed control at 1000 g/ha [7, 9]: 100%
pest or weed control at 1000 g/ha [8, 9]: 10%

SMILES: CCCCCCN(CCC)CC(P(=O)(O)O)P(=O)(O)O [Compound 59]
IC50 ([1]; Table I): 135 nM
IC50 ([1]; Table II): 135 nM
pest or weed control at 1000 g/ha [2, 9]: 85%
pest or weed control at 1000 g/ha [3, 9]: 90%
pest or weed control at 1000 g/ha [4, 9]: 95%
pest or weed control at 1000 g/ha [5, 9]: 30%
pest or weed control at 1000 g/ha [6, 9]: 20%
pest or weed control at 1000 g/ha [7, 9]: 90%
pest or weed control at 1000 g/ha [8, 9]: 5%

SMILES: O=P(O)(O)C(CNC1CC1)P(=O)(O)O [Compound 42]
IC50 ([1]; Table I): 27 nM
IC50 ([1]; Table II): 27 nM
pest or weed control at 1000 g/ha [2]: 100%
pest or weed control at 1000 g/ha [3]: 95%
pest or weed control at 1000 g/ha [4]: 95%
pest or weed control at 1000 g/ha [5]: 10%
pest or weed control at 1000 g/ha [6]: 90%
pest or weed control at 1000 g/ha [7]: 100%
pest or weed control at 1000 g/ha [8]: 20%

Second part, led by results:

IC50 ([1]; Table I): 150 nM
IC50 ([1]; Table II): 150 nM
SMILES: CC(C)CNCC(P(=O)(O)O)P(=O)(O)O [Compound 12]
pest or weed control at 4000 g/ha [2, 10]: 100%
pest or weed control at 4000 g/ha [3, 10]: 98%
pest or weed control at 4000 g/ha [4, 10]: 98%
pest or weed control at 4000 g/ha [5, 10]: 98%
pest or weed control at 4000 g/ha [6, 10]: 90%
pest or weed control at 4000 g/ha [7, 10]: 100%
pest or weed control at 4000 g/ha [8, 10]: 70%

IC50 ([1]; Table I): 26 nM
IC50 ([1]; Table II): 26 nM
SMILES: O=P(O)(O)C(CN1CC=CCC1)P(=O)(O)O [Compound 45]
pest or weed control at 1000 g/ha [2, 9]: 100%
pest or weed control at 1000 g/ha [3, 9]: 100%
pest or weed control at 1000 g/ha [4, 9]: 100%
pest or weed control at 1000 g/ha [5, 9]: 90%
pest or weed control at 1000 g/ha [6, 9]: 100%
pest or weed control at 1000 g/ha [7, 9]: 100%
pest or weed control at 1000 g/ha [8, 9]: 50%

IC50 ([1]; Table I): 520 nM
IC50 ([1]; Table II): 520 nM
SMILES: CC1CC(C)CN(CC(P(=O)(O)O)P(=O)(O)O)C1 (centres unmarked) [Compound 35]
pest or weed control at 1000 g/ha [2, 9]: 98%
pest or weed control at 1000 g/ha [3, 9]: 15%
pest or weed control at 1000 g/ha [4, 9]: 50%
pest or weed control at 1000 g/ha [5, 9]: 0%
pest or weed control at 1000 g/ha [6, 9]: 30%
pest or weed control at 1000 g/ha [7, 9]: 25%
pest or weed control at 1000 g/ha [8, 9]: 0%

IC50 ([1]; Table I): 32 nM
IC50 ([1]; Table II): 32 nM
SMILES: CCC(C)NCC(P(=O)(O)O)P(=O)(O)O (centres unmarked) [Compound 48]
pest or weed control at 1000 g/ha [2, 9]: 100%
pest or weed control at 1000 g/ha [3, 9]: 98%
pest or weed control at 1000 g/ha [4, 9]: 95%
pest or weed control at 1000 g/ha [5, 9]: 60%
pest or weed control at 1000 g/ha [6, 9]: 95%
pest or weed control at 1000 g/ha [7, 9]: 100%
pest or weed control at 1000 g/ha [8, 9]: 50%

IC50 ([1]; Table II): 38 nM
SMILES: O=P(O)(O)C(CN1CCCC1)P(=O)(O)O [Compound 4]
pest or weed control at 1000 g/ha [2, 9]: 60%
pest or weed control at 1000 g/ha [3, 9]: 90%
pest or weed control at 1000 g/ha [4, 9]: 100%
pest or weed control at 1000 g/ha [5, 9]: 20%
pest or weed control at 1000 g/ha [6, 9]: 20%
pest or weed control at 1000 g/ha [7, 9]: 100%
pest or weed control at 1000 g/ha [8, 9]: 5%
